{"source": "patent US6117849A", "about": "“S-(+)-adenosylmethionine and 3'-azido-2', 3'-dideoxy-nucleoside complexes as potent inhibitors of HIV-replication” (Symbio Herborn Group GmbH & Co., priority 1996, dated 2000)", "key": {"HIV-1 isolate of HIV IIB": {"test_system": "HIV-1 isolate of HIV IIB", "assay": "HIV replication in de novo infected lymphocyte cultures, viral core protein p24 endpoint", "assay_type": "cell-based, HIV-1 (in human peripheral blood lymphocytes)", "conditions": "FIG. 1, p24", "protocol": "For this purpose, SAM has been tested in a dose response titration ranging from 1000 μg/mL to 10 μg/mL final concentrations for the ability to inhibit HIV replication in de novo infected cells. Endpoint in this assay was the quantitative determination of the concentration of the viral core protein p24 as described by Mueller et al. (Mueller, Ch., Moritz, R., Prigge, G., Weitzel, D., Kunze, R., Kage, A., Koettgen, E., Fresenius Z. Anal. Chem.,330, 352-353, 1988). […] The toxicity testing of cellular proliferation was performed according to J. Mosmann (J. Immunological Methods, 65, 55-63, 1983). […] All experiments were carried out in triplicate cultures, including those for the various concentrations of the molecular complexes tested.--The lymphocytes were infected with a standardized preparation of HIV-1 isolate of HIV IIB. The cells were sedimented by low speed centrifugation, the sediment resuspended in the assay buffer (standard), and the resuspended cells were inoculated by adjusting to the following conditions: 100 ng of viral core protein p24/mL and 3200 pg HIV RNA/mL, respectively. Normally 3×10^8 lymphocytes were suspended in 1 mL if the HIV inoculum, and incubated at 37° C. for 60 minutes. After washing the cells twice with 50 mL of culture medium the cells were resuspended at a concentration of 3×10^6 cells/mL in culture medium which contains 10 units/mL of human recombinant interleukin-2. 100 μL of this cell suspension were added to 100 μL of the pre-diluted solution of the compounds to be tested, without adding any salt or protein. The entire assay was cultivated in humidified atmosphere in the presence of 5% CO2 at 37° C. After the 4th day of infection the viral replication was determined in the lymphocyte cultures. The end point of the titration was the determination of the viral core protein p24 in the supernatant of each of the lymphocyte cultures. 150 μL of the supernatant were removed and transferred to a vial containing 50 μL/well SDS at a final concentration of 0.08% (w/w). The concentration of the synthesized p24 by the HIV infected cells was determined according to Mueller et al., using recombinant p24 as a standard for calibration."}, "IL-β, IL-2": {"test_system": "IL-β, IL-2", "assay": "Cytokine biosynthesis after stimulation of lymphocytes", "assay_type": "cell-based", "conditions": "after phytohemagglutination stimulation"}, "HIV": {"test_system": "HIV", "assay": "TPA- or cytokine-stimulated HIV replication/expression", "assay_type": "cell-based", "conditions": "in vitro"}, "thymidylate kinase": {"test_system": "thymidylate kinase", "assay": "Inhibition of thymidylate kinase, in vitro", "assay_type": "biochemical"}, "[1]": {"test_system": "RT (triphosphatase activity)", "assay": "Triphosphatase activity in presence of RT and phosphate", "assay_type": "biochemical, HIV", "conditions": "in the presence of phosphate (Pi)", "text": "Furthermore the efficiency of such molecular complexes is also seen on the rate at which they are metabolized intra cellularly to the corresponding free ddNMP available to be further transformed to the triphosphate derivative active on the RT, which is enhanced due to these molecular complexes as shown through the kinetics in-vitro and in-vivo. In order to make this transformation feasible, the unique and stable molecular conformation of these complexes and their solvation facilitates the inhibitory and regulatory effects on RT, lipid penetration and inhibitory effects on the growing infective RNA or DNA polymeric chains. The avoidance of e.g. AZT-monophosphate accumulation, similarly also for other ddN N3 compounds, which causes severe inhibition of cellular dTMP kinase, resulting in a blockade of further phosphorylation steps, while on the contrary, the disclosed molecular complexes, appear to be unable to induce the same effects and is clearly incapable of inhibiting their own phosphorylation. This is completely different from those of the single administration of the components, e.g. SAM and ddN≈N3. […] This is also endorsed by the findings that the kinetics of inhibition on the RT enzyme is influenced by the presence of inorganic phosphate resulting in restoring active ATP during the presence of SAM. […]"}, "[2]": {"conditions": "human, in vivo"}, "[3]": {"target": "T1, reverse transcriptase (RT) (HIV-1 M:B_HXB2R, UniProt P04585)", "conditions": "read-out: apparent Ki (recalculated, corrected for DTT); recalculated from literature", "quoted_text": "The disclosed inhibitory concentrations of SAM is meant as the apparent concentration of SAM, which inhibits under their in vitro assay conditions 50% of the RT activity. […] Inhibitory experiments using DTT, e g. for protecting sulfhydryl groups of the enzyme (RT), in their assay have to be omitted or corrected for, respectively, since DTT act as a strong reducing agent, particularly for SAM or SAM-tosylate-bis-sulfate which potentiates the reduction due to the sulfonium group which is being reduced to the sulfinium group, or to S-S-complexes comprising of SAM and DDT, respectively. […] Note, the determined inhibitory concentrations are not the ones which can be correlated to the ones according to Michaelis-Mentenkinetics."}, "[4]": {"target": "T1, reverse transcriptase (RT)", "assay_type": "biochemical", "set-up": "A2: RT in cord-blood lymphocyte cultures infected with HIV from an AIDS patient", "protocol": "The second in-vitro test uses the enzymatic activity of RT, testing the kinetic and inhibitory action of the molecular complexes. The cloning of the RT in biologically active form made it possible to have large quantities of the RT enzyme available for these studies (RT from Sigma, lot # R 9376).\nThe steady state reaction conditions for RT are chosen that approximate physiological conditions are met: pH 7.45 (37° C.), ionic strength of 150 mM, routinely a buffer was employed consisting of 50 mM TRIS-HCl, 100 mM KCl, 5 mM MgCl2, the addition of 10 μg/mL bovine serum albumin were included. […] The aforementioned precautions designed to avoid potential reduction of SAM in the presence of DTT are taken into accounts to preclude any distortions of the kinetic behavior of the RT enzyme in the presence of the various substrates e.g. as our molecular compounds. […] The enzyme concentrations of RT was approx. 20 nM, T-P (template-primer) […] and 25 μM of [^3 H]-dNTP (assay conditions are modified fro those of Mayunder et al., J. biol. Chem.,263, 15657, 1988). […] In case both parameters are effected to the same extent, then the inhibition is uncompetitive. In order to facilitate the difference between SAM kinetics and those for the molecular complexes we studied first SAM kinetics and subsequently the kinetics in the presence of the molecular complexes. […] Similar experiments have been carries out with dGTP.\nThe enzyme was assayed with 50 nM primer sites on poly (rA): oligo (dT), and variable concentrations of [^3 H] dTP as substrates in a reaction mixture as described above at pH 7.5 (37° C.)."}}, "data": [{"smiles": "C[S+](CC[C@H](N)C(=O)O)C[C@H]1O[C@@H](n2cnc3c(N)ncnc32)[C@H](O)[C@@H]1O", "note": "(single isomer, unassigned; (+)) [SAM, (+)-5'-[(3-amino-3-carboxypropyl)methylsulfinio]-5'-deoxyadenosine]", "values": [{"measurement": "inhibition of HIV replication", "setting": "HIV-1 isolate of HIV IIB", "value": "inhibited HIV replication in a dose dependent response"}, {"measurement": "cytokine biosynthesis (IL-β, IL-2)", "setting": "IL-β, IL-2", "value": "influenced"}, {"measurement": "cytokine-activation of HIV expression", "setting": "HIV", "value": "does not inhibit cytokine-activation of HIV expression in vitro"}, {"measurement": "inhibition of thymidylate kinase", "setting": "thymidylate kinase", "value": "reversal of the inhibition of the thymidylate kinase"}, {"measurement": "triphosphatase activity", "setting": "[1]", "value": "stimulated"}, {"measurement": "CSF peak of SAM relative to plasma", "setting": "[2]", "value": "lower and more prolonged for healthy patients"}, {"measurement": "Ki", "setting": "[3]", "value": "200 to 250", "unit": "nM"}, {"measurement": "fraction unbound", "setting": "in vitro", "value": "0.95 to 0.97"}, {"measurement": "stability in RT assay with DTT", "setting": "[4]", "value": "destroy SAM"}]}]}
